From patent publication US7427616B2, “Condensed pyridines and pyrimidines with tie2 (TEK) activity” (AstraZeneca AB, priority 2002, dated 2008)

Biological target: T1, Tie2 receptor (Homo sapiens, UniProt Q02763)
T1 construct: one can use natural cell lines or primary cells which are known to express the receptor of choice; endogenous in cells; host or cells: EA.hy926/B3 cells (HUVEC named as alternative)
Assay: Cellular Tie2 autophosphorylation assay (Test (b))
Type: cell-based
Settings: Ang1 ligand stimulated autophosphorylation of cellular Tie2 receptor, e.g. EA.hy926/B3 cells
Text: b. Cellular Tie2 Autophosphorylation Assay
This assay is based on measuring the ability of compounds to inhibit autophosphorylation of the Tie2 receptor which normally leads to the production of “activated” receptor that in turn initiates the particular signal transduction pathways associated with the receptor function.
Autophosphorylation can be achieved by a number of means. It is known that expression of recombinant kinase domains in baculoviral systems can lead to the production of phosphorylated and activated receptor. […] In these cases the natural, external cell surface domain of the receptor has been replaced with that of a domain which is known to be readily dimerised via the addition of the appropriate ligand (e.g. TrkA-Tie2/NGF ligand (Marron, M. B., et al., 2000 Journal of Biological Chemistry: 275:39741-39746) or C-fms-Tie-1/CSF-1 ligand (Kontos, C. D., et al., 2002 Molecular and Cellular Biology: 22, 1704-1713). Thus when the chimaeric receptor expressed in a host cell line and the respective ligand is added, this induces autophosphorylation of the chimeric receptor's kinase domain. This approach has the advantage of often allowing a known (and often easily obtained) ligand to be used instead of having to identify and isolate the natural ligand for each receptor of interest. […]

T1 sequence (Q02763 23-1124): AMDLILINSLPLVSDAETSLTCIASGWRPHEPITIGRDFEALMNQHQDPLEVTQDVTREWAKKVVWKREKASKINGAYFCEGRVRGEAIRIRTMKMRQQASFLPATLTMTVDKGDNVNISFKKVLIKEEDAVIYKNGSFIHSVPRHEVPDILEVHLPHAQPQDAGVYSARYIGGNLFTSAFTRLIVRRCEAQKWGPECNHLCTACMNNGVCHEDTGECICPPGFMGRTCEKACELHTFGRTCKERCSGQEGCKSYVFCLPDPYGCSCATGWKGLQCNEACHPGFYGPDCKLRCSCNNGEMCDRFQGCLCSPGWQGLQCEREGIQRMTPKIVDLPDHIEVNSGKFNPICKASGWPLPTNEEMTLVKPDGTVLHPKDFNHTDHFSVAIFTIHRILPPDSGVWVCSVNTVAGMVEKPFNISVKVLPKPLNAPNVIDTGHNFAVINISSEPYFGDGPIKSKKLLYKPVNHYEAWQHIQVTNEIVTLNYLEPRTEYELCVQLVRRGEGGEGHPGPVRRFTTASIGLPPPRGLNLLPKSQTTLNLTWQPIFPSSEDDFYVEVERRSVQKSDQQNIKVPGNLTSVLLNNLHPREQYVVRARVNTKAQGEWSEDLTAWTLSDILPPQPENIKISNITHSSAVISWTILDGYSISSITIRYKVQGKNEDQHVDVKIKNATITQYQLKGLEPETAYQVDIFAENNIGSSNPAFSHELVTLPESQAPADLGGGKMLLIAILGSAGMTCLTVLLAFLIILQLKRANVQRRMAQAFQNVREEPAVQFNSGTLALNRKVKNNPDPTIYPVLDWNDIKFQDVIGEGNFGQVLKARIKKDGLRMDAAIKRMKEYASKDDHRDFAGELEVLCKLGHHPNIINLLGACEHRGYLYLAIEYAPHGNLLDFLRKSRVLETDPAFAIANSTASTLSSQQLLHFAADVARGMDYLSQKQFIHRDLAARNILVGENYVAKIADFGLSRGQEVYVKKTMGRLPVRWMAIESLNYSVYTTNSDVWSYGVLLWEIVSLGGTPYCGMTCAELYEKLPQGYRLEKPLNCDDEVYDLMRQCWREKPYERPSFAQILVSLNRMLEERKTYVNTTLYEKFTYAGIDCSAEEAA

IC50 [nM]	Compound
2700	Cn1cnc(-c2ccccc2)c1-c1nc2c(N)ncnc2s1 [Example 2, 2-(1-Methyl-4-phenyl-1H-imidazol-5-yl)[1,3]thiazolo[5,4-d]pyrimidin-7-amine]
2200	CSc1ncnc2sc(-c3c(-c4ccccc4)ncn3C)cc12 [Example 7, 6-(1-Methyl-4-phenyl-1H-imidazol-5-yl)-4-(methylthio)thieno[2,3d]pyrimidine]
